US10124008B2, “Use of inhibitors of acid sphingomyelinase to treat acquired and inherited retinal degenerations” (Wisconsin Alumni Research Foundation, priority 2014, dated 2018)
“Also recorded” adds a separate entry of the source.

Key:
[1] = tested on: LC3B-II and p62 in primary RPE monolayers; experiment: Immunoblotting of LC3B-II and p62 in polarized primary RPE monolayers; format: cell-based, porcine
Description: RPE harvested from mouse eyecups were sonicated in lysis buffer with protease inhibitors for 10 min. Primary RPE on TRANSWELL filters were harvested and lysed with NE-PER nuclear and cytoplasmic extraction reagents (Thermo Scientific #78833) according to the manufacturer's recommendation. Protein concentrations were measured with DC assay (BioRad). […] Proteins were then transferred onto nitrocellulose membrane using IBLOT dry transfer system (INVITROGEN), blocked in 5% milk in TBS-T for 1 hour before incubating in primary antibody overnight at 4° C. Membranes were probed with antibodies to LC3B (1:3000, Novus NB600-1384 for pig and 1:500, Sigma L7543 for mouse), p62/SQSTM1 (1:1000, ARP03-GP62-C) and actin (1:5000, Santa Cruz) followed by horseradish peroxidase-conjugated secondary antibodies. Immunoblots were visualized by ECL substrate (Thermo Scientific) and quantified using Image Studio (LI-COR). […] Other drugs used were the mTOR inhibitors Torin 1 and Torin 2 (50 nM and 1.5 μM, respectively, for 2 h, TOCRIS), the vacuolar ATPase inhibitor bafilomycin A1 (100 nM for 2 h, EMD Millipore), the LXRα agonist TO901317 (1 μM for 20 h, Cayman Chemicals), the HDAC6 inhibitor trichostatin A (TSA, 500 nM, 16 h, Sigma) and the ASMase inhibitor desipramine (10 μM for 3 h, Sigma). To depolymerize MTs, cells were treated with 33 μM nocodazole for 30 minutes, followed by cold-treatment (4° C.) for 30 minutes (Kreitzer et al., 2003). At the concentrations and exposure times used, none of these drugs caused alterations in RPE cell morphology or physiology (monitored by TER measurements, ZO-1 and organelle marker staining). […] Conversion of LC3B-I to its lipidated form (LC3B-II) is an indicator of autophagosome biogenesis and p62 levels are a measure of autophagic flux (Klionsky et al., 2012).

[2] = tested on: primary RPE cells; experiment: Live imaging of tandem fluorescent mRFP-GFP-LC3 (tfLC3), autophagic flux; format: cell-based, porcine; details: for autophagic flux / autophagosome-lysosome fusion (tfLC3 EGFP:mRFP): RPE with A2E, 3 h drug incubation (TO901317 1 μM 20 h); for autophagy after mTOR inhibition: polarized primary RPE, Torin 1 50 nM and Torin 2 1.5 μM, 2 h
Description: RPE cells were transfected with EGFP-LC3 or tandem fluorescent mRFP-GFP-LC3 (Addgene) using the AMAXA NUCLEOFECTOR II (Lonza). Approximately 1.5 million cells and 5 μg of plasmid DNA were used for each transfection. Cells were plated either on serum-coated glass-bottom dishes (Mattek) or […] filters at confluence.
Andor IQ2 software was used for image acquisition and Imaris x64 (Bitplane) for image analysis. […] Trafficking data was collected from three separate transfections for a total of at least 12-30 movies captured for treatment. During image acquisition care was taken to maintain the same laser power, exposure and electron-multiplying gain settings. […] After background subtraction (using the background subtraction algorithm and identical automatic threshold for all images) and smoothing (Gaussian algorithm with identical threshold settings for all images), Spots and Tracks algorithms were used to identify vesicles and follow them through time and cell-space to obtain total track length and track displacement.
We used tandem fluorescent mRFP-GFP-LC3 (tfLC3) to monitor autophagy in primary RPE cells in real time.
(§1) We performed two initial screens: first, we compared the ability of functional inhibitors (fluoxetine and amitriptyline) with that of the lone structural ASMase inhibitor zoledronic acid in decreasing acetylated tubulin. Here, polarized RPE monolayers with or without A2E were treated with one of the three inhibitors (10 μM, 3 h). Desipramine as a positive control. At the end of the incubation period, cells were fixed and stained for acetylated tubulin, imaged and the amount of acetylated tubulin in the cells was quantified. Second, we evaluated three additional drugs (sertraline, astemizole and fexofenadine) for their abilities to increase autophagy in the RPE. Cells with or without bisretinoids were transfected with mRFP-GFP-LC3, starved to induce autophagy, treated with drugs and imaged as in FIG. 9D.

[3] = tested on: EGFP-LC3-labeled autophagosomes in primary RPE; experiment: Live imaging of EGFP-LC3 autophagosome trafficking (spinning disk, Boolean gating); format: cell-based, porcine
Description: RPE cells were transfected with EGFP-LC3 or tandem fluorescent mRFP-GFP-LC3 (Addgene) using the AMAXA NUCLEOFECTOR II (Lonza). Approximately 1.5 million cells and 5 μg of plasmid DNA were used for each transfection. Cells were plated either on serum-coated glass-bottom dishes (Mattek) or TRANSWELL filters at confluence. Live imaging of autophagosome traffic and autophagic flux were performed on the Revolution XD spinning disk microscopy system (Andor) equipped with the Yokogawa CSU-X1 confocal spinning disk head, Nikon Eclipse Ti inverted microscope surrounded by an Okolab cage incubator, iXon x3 897 EM-CCD camera, Andor laser combiner with four solid state lasers at 405, 488, 561, and 640 nm and corresponding band-pass filter sets (Sutter), and ASI motorized stage with piezo-Z for rapid Z-stack acquisition. Andor IQ2 software was used for image acquisition and Imaris x64 (Bitplane) for image analysis. For live imaging, cells were serum starved for 2 h to induce autophagy and rapid z-stacks were acquired using the 100×1.49 NA Apo TIRF objective (Nikon) for ˜50 frames at 37° C. Trafficking data was collected from three separate transfections for a total of at least 12-30 movies captured for treatment. During image acquisition care was taken to maintain the same laser power, exposure and electron-multiplying gain settings. Trafficking analysis was carried out using the Spots and Tracks modules of the Imaris software (Liu et al., 2010). After background subtraction (using the background subtraction algorithm and identical automatic threshold for all images) and smoothing (Gaussian algorithm with identical threshold settings for all images), Spots and Tracks algorithms were used to identify vesicles and follow them through time and cell-space to obtain total track length and track displacement. […] Data were analyzed using either a two-tailed t-test or one-way ANOVA followed by Bonferroni or Dunnett's post-tests (GraphPad PRISM). Unless otherwise stated, data are presented as Mean±S.E.M. of ≥3 independent experiments, with 3 to 4 replicates per condition per experiment. […] Regions were defined by: minimum or maximum track length, minimum or maximum displacement and a slope of 0.5 (displacement divided by length). Tracks with slope <0.5 were taken as less straight (region 2) than those with slope of >0.5 (region 3). Tracks within each region are represented as a percent of total number of tracks in Tables 1 and 2. One-way ANOVA or t-tests were used to compare regions between treatment groups. […] To examine the efficiency of autophagosome transport, Spots and Tracks algorithms in Imaris were used to calculate how far each autophagosome traveled (track displacement length) as a function of the movement required to travel that distance (total track length) (Liu et al., 2010).

[4] = tested on: acetylated tubulin in polarized primary RPE; experiment: Immunofluorescence staining of acetylated and tyrosinated tubulin; format: cell-based, porcine; details: for acetylated tubulin in RPE with A2E: inhibitors 10 μM for 3 h, 48 h after A2E treatment
Description: ALEXAFLUOR secondary antibodies were used at 1:500 and rhodamine-phalloidin (Cytoskeleton, PHDR1) at 1:200. Filters were mounted under coverslips on glass slides under […] (Vector labs), sealed and visualized with Andor Revolution XD spinning disk confocal microscope using a 60×1.4 NA oil objective with identical exposures and gains for each antibody. Acetylated tubulin-labeled stable microtubules (≥5 μm in length) after nocodazole treatment were analyzed manually in the Surpass mode of Imaris (Bitplane).
as §1

[5] = Table 4, potential issues; cited from earlier work
[6] = A2E-laden RPE after mTOR inhibition, TO901317 1 μM 20 h, desipramine 10 μM 3 h
[7] = percent of total EGFP-LC3 tracks, serum-starved RPE, TSA 500 nM

In the case of CO/C1=C\C(C)=C\[C@@H](C)[C@@H](O)[C@@H](C)C/C(C)=C/C=C/[C@H](OC)[C@@H]([C@@H](C)[C@@H](O)[C@H](C)[C@@]2(O)C[C@@H](O)[C@H](C)[C@@H](C(C)C)O2)OC1=O [Bafilomycin A1], the “LC3B-II levels (immunoblot)” value ([1]; after mTOR inhibition, agent versus control RPE) is reported as “increased LC3B-II after mTOR inhibition in control cells but not cells exposed to A2E”.

For CC(C)(C(=O)O)c1ccc(C(O)CCCN2CCC(C(O)(c3ccccc3)c3ccccc3)CC2)cc1 (stereo not shown) [Fexofenadine], the “autophagic flux / autophagosome-lysosome fusion (tfLC3 EGFP:mRFP)” value [2] was “not as effective as astemizole, sertraline or desipramine in increasing autophagic flux”.

With O=S(=O)(c1ccccc1)N(CC(F)(F)F)c1ccc(C(O)(C(F)(F)F)C(F)(F)F)cc1 [TO901317] the “LC3B-II levels / autophagosome biogenesis (immunoblot)” value [1, 6] was “increased autophagosome biogenesis”, the “p62 levels / autophagic flux (immunoblot)” value [1, 6] was “significantly lesser than corresponding condition without TO901317” and the “autophagic flux / autophagosome-lysosome fusion (tfLC3 EGFP:mRFP)” value [2] was “restored autophagic flux in cells with A2E and decreased EGFP fluorescence back to control levels”.

For CC(/C=C/C(=O)NO)=C\[C@@H](C)C(=O)c1ccc(N(C)C)cc1 [TSA, trichostatin A], the “autophagosome trafficking (long-range, directed movements)” value ([3]; agent alone versus control RPE) was “replicated the autophagosome trafficking defects seen in cells with A2E”, the “Region 1 (R1) (D <2 μm, L <5 μm)” value [3, 7] was 88.01% and the “Region 3 (R3) (L >5 μm, Slope >0.5 μm)” value [3, 7] was 1.64%.

For CCC(=O)N1CCN(c2ccc(-n3c(=O)ccc4cnc5ccc(-c6cnc7ccccc7c6)cc5c43)cc2C(F)(F)F)CC1 [Torin 1], the “autophagy after mTOR inhibition” value [2] was “autophagy was upregulated”.

In the case of Nc1ccc(-c2ccc3ncc4ccc(=O)n(-c5cccc(C(F)(F)F)c5)c4c3c2)cn1 [Torin 2], the “autophagy after mTOR inhibition” value [2] is reported as “autophagy was upregulated”.

For CCN(CC)CCO[C@H]1CC[C@@]2(C)C(=CC[C@@H]3[C@@H]2CC[C@]2(C)C(=O)CC[C@@H]32)C1 [U18666A], the acetylated tubulin ([4]; agent alone versus control RPE, U18666A 1 μM, 16 h) was “Acetylated tubulin also increased”.

With CN(C)CCC=C1c2ccccc2CCc2ccccc21 [amitriptyline] the “acetylated tubulin in RPE with A2E” value [4] was “as effective as desipramine in decreasing acetylated tubulin; also recorded: decreased acetylated tubulin levels in RPE with A2E back to control levels”.

For COc1ccc(CCN2CCC(Nc3nc4ccccc4n3Cc3ccc(F)cc3)CC2)cc1 [astemizole], the “autophagic flux / autophagosome-lysosome fusion (tfLC3 EGFP:mRFP)” value [2] was “completely reversed the autophagic block induced by A2E”.

For CNCCC(Oc1ccc(C(F)(F)F)cc1)c1ccccc1 (stereo not shown) [fluoxetine], the “acetylated tubulin in RPE with A2E” value [4] was “as effective as desipramine in decreasing acetylated tubulin; also recorded: decreased acetylated tubulin levels in RPE with A2E back to control levels”.

For CN[C@H]1CC[C@@H](c2ccc(Cl)c(Cl)c2)c2ccccc21 [sertraline], the “autophagic flux / autophagosome-lysosome fusion (tfLC3 EGFP:mRFP)” value [2] was “completely reversed the autophagic block induced by A2E”.

For O=P(O)(O)C(O)(Cn1ccnc1)P(=O)(O)O [zoledronic acid], the oral bioavailability [5] is listed as less than 4% oral.
